The values that follow come from paper PMC12012479, “Structural and functional characterization of the brain-specific dynamin superfamily member RNF112” (Proceedings of the National Academy of Sciences of the …, 2025).

Substitutions are numbered along the chain they refer to.

Test [1] addresses T1, RNF112T (xlRNF112T) (Xenopus laevis, UniProt Q2VPQ0).
T1 construct: gene rnf112.2.L; GTPase domain + three-helix middle domain; His6-SUMO tag cut by ULP1; E. coli; monomer, dimer with GDP-AlF4-
T1 sequence (Q2VPQ0 120-541 limits assumed): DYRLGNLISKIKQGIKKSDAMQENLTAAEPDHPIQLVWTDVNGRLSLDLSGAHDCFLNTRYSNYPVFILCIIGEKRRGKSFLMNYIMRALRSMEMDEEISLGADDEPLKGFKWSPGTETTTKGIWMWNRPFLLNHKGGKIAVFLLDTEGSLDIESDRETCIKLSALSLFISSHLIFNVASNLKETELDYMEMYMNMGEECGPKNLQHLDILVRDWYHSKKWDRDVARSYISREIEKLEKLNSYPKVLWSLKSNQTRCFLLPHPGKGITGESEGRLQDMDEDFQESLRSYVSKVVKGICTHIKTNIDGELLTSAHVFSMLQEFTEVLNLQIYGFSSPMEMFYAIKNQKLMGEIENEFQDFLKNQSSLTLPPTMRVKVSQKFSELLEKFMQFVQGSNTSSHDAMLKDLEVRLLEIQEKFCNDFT
Briefly: X-ray crystal structure (form […] from GTPγS, […] Å; form […] by soaking). It counts as binding. Conditions: nucleotide pocket of GTPase domain.

The target in test [2] is T1, RNF112T (xlRNF112T). Briefly: ITC. It counts as binding. Particulars: 5 mM MgCl2, 150 mM NaCl, pH 7.4, 25 °C. The source says:
ITC on RNF112T (xlRNF112T) | binding GTPγS and GDP with dissociation constants (Kd) in the micromolar range

Test [3] addresses T2, RNF112F (Xenopus laevis, UniProt Q2VPQ0, T240A, form not given).
T2 construct: gene rnf112.2.L; near-full-length, residues 60 to 541 (RING, GTPase and middle domains); His6-SUMO tag cut by ULP1; E. coli; dimer with GDP-AlF4-
T2 sequence (Q2VPQ0 60-541 T240A): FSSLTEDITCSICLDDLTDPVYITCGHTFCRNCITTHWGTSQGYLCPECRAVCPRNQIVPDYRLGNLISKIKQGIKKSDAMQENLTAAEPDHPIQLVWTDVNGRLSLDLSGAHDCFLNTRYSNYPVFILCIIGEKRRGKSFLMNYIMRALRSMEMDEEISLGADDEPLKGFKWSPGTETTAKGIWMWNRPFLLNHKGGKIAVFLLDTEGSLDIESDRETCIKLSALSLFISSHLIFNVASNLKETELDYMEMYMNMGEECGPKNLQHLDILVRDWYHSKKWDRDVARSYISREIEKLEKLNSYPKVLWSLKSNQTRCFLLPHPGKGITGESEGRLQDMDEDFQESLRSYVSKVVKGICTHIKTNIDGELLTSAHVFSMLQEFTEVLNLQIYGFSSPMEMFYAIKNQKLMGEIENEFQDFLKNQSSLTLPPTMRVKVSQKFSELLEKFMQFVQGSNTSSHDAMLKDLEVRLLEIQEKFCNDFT
Put plainly: binding assay in SI Fig. S9. Conditions: GTPase-deficient mutant.

The target in the next test is T3, human RNF112T (Homo sapiens, UniProt Q9ULX5).
T3 construct: gene RNF112; truncated, GTPase domain + middle domain (borders not in main text); E. coli
T3 sequence (Q9ULX5 150-540 limits assumed): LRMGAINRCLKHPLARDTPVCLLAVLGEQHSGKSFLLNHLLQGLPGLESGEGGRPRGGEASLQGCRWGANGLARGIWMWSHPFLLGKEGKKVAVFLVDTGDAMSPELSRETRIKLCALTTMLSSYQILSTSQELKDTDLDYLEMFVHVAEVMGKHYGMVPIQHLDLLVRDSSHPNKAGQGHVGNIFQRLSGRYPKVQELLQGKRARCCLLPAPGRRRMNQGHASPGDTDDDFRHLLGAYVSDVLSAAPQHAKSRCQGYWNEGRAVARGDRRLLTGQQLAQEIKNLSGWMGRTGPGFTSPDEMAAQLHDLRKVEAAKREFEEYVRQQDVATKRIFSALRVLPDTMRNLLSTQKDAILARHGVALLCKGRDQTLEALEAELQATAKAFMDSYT
Put plainly: GTP hydrolysis assay. It counts as biochemical. Conditions: 1 mM GTP, 20 μM protein, 1 mM MnCl2, pH 7.0, 37 °C.

The target in test [4] is T4, RNF112F (Xenopus laevis, UniProt Q2VPQ0).
T4 construct: gene rnf112.2.L; near-full-length, residues 60 to 541 (RING, GTPase and middle domains); His6-SUMO tag cut by ULP1; E. coli; dimer with GDP-AlF4-
T4 sequence (Q2VPQ0 60-541): T2 sequence (Q2VPQ0 60-541 T240A) with A181T
Put plainly: GTP hydrolysis assay. Type of test: biochemical. Particulars: 1 mM GTP, 20 μM protein, 1 mM MnCl2, pH 7.0, 37 °C.

Another test concerns the target T5, mouse RNF112T (Mus musculus, UniProt Q96DY5).
T5 construct: gene Rnf112; truncated, GTPase domain + middle domain (borders not in main text); E. coli
T5 sequence (Q96DY5 170-563 limits assumed): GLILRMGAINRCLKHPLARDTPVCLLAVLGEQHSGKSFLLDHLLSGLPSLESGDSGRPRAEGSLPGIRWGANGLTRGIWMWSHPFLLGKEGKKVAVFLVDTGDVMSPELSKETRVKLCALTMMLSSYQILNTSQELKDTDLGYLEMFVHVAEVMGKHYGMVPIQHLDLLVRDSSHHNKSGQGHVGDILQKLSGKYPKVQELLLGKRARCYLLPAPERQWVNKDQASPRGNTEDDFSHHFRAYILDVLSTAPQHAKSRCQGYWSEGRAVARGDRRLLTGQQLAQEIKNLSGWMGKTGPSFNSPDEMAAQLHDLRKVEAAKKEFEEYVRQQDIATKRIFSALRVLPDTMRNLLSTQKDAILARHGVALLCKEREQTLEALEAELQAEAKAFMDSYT
Briefly: GTP hydrolysis assay. Conditions: 1 mM GTP, 20 μM protein, 1 mM MnCl2, pH 7.0, 37 °C. Type of test: biochemical.

The target of test [5] is near-full-length Xenopus laevis RNF112 containing residues 60 to 541 (RNF112F) (Xenopus laevis). Put plainly: SEC; analytical gel filtration in the presence of GDP•AlF4^−. Background: Size exclusion chromatography separates by hydrodynamic size, large species first.

In the case of `Nc1nc2c(ncn2[C@@H]2O[C@H](COP(=O)(O)OP(=O)(O)O)[C@@H](O)[C@H]2O)c(=O)[nH]1` [GDP], the “X-ray crystal structure (form 1 from GTPγS, 2.2 Å; form 2 by soaking)” value at RNF112T (xlRNF112T) [1] is on record as “GDP-bound RNF112T structure derived from a nucleotide-free RNF112T crystal soaked with GDP”. Also, the Kd on RNF112T (xlRNF112T) [2] was 14.4 ± 2.5 µM.

In the case of `Nc1nc2c(ncn2[C@@H]2O[C@H](COP(=O)(O)OP(=O)(O)OP(=O)(O)O)[C@@H](O)[C@H]2O)c(=O)[nH]1` [GTP], the “binding assay in SI Fig. S9” value at RNF112F [3] is recorded as “GTPase-deficient mutant RNF112F(T240A), which bound GTP but did not dimerize”. Besides, the GTP hydrolysis assay entry is “purified human and mouse RNF112T had relatively weak GTPase activity” at human RNF112T; “showed similar GTPase activity as RNF112T” on RNF112F [4]; “purified human and mouse RNF112T had relatively weak GTPase activity” at mouse RNF112T.

With “near-full-length Xenopus laevis RNF112 containing residues 60 to 541 (RNF112F) (domain or fragment)”, the stoichiometry N in test [5] turned out to be 2.

Usually Kd stands for the concentration at which binding is half-saturated. The low end stands for tighter binding, the high end for weaker binding. For orientation: stoichiometry N means a count of units in the complex or per binding partner.
